The source of these data is patent US6946462B2, “N-monoacylated derivatives of o-phenylenediamines, their analogs and their use as pharmaceutical agents” (Hoffmann-La Roche Inc., priority 2001, dated 2005).

Assay [1] concerns the target T1, rec. HDAC-1 purified from HEK 293 cells (Homo sapiens, UniProt Q13547).
T1 construct: made in house; host or cells: HEK 293 cells
The assay is described as follows: Assay for inhibition of histone deacetylase (HDAC), quenched peptide / Lys C fluorescence. Type of assay: biochemical. As to conditions: 10 concentrations starting at 30 uM, 90 min incubation. The source says:
A) Assay for Inhibition of Histone Deacetylase (HDAC)
HDAC deacetylates lysines in histone H4. A 17 aa peptide with TAMRA at the C-terminus and QSY7 at the N-terminus was used as a substrate. Following deacetylation by HDAC the enzyme Lys C is able to cleave the peptide resulting in disappearence of the quench effect and a high signal. Inhibition of HDAC by compounds results in low signals because Lys C has no substrate for cleaving and the quench effect persists.
For dose response curves 10 concentrations were diluted starting at 30 uM. 10 ul compound dilution were put into each well of a 384 well plate. 10 ul HDAC (rec. HDAC-1 purified from HEK 293 cells; activity was assessed for each preparation) were added. 10 ul peptide was added (1 uM final concentration). After 90 min incubation at room temperature the reaction was stopped by addition of 20 ul test buffer including 3 ug/ml Lys C and 0.075% SDS. After overnight incubation the fluorescent signal of TAMRA was measured at absorption 544 nm, emission 590 nm by Victor 2.

Assay [2] relates to SW620 colon carcinoma cells. The assay is described as follows: SW620 colon carcinoma xenograft in nude mice, tumor volume. Type of assay: in vivo, Balb/C nu/nu-mice. As to conditions: oral, once daily, day 8 to day 27. The protocol: Female Balb/C nu/nu-mice(n=12 per group), aged 8-10 weeks, were subcutaneously injected with […] SW620 colon carcinoma cells. On day 6, animals with tumor volumes of about 200 mm^3 were randomly assigned to treatment groups. The test compound was administered as a fine suspension in 0.5% methylcellulose with an application volume of 10 ml/kg based on actual body weights. Oral treatment started on day 8 and continued through to day 27 on a once daily, 7 times per week treatment schedule.
The volume of the tumor was determined from the following equation:
Volume of a tumor=½×(major axis)×(minor axis)2

Assay [3] concerns E-cadherin expression in A549. The assay is described as follows: E-cadherin upregulation assay (ELISA, with WST-1 proliferation in the same well). The note with it: A549 human lung carcinoma cells; % proliferation subtracted from % E-cadherin expression; 10 concentrations starting at 40 uM; read-out: E-cadherin upregulation EC50 [μM] (Assay B). Type of assay: cell-based. The source says: B) E-cadherin Upregulation Assay
E-cadherin as an adhesion molecule is important for connection of the cells and integrity of tissues. […] Upregulation of the protein in cells where there is insufficient E-cadherin is regarded as a marker for the differentiation of the tumor cell. This corresponds to leaving the undifferentiated tumor cell status.
The compounds described are able to upregulate expression of E-cadherin in A549. In parallel, the proliferation of the cells is examined. The activity of an E-cadherin upregulator is defined as an increase in E-cadherin expression determined by an ELISA. Cell proliferation is also determined by WST-1 in the same well.
The assay was performed in 384-well format. […] 5000 cells per well were seeded in culture medium with 10% FCS at day 1. At day 2 compounds in different concentrations starting at 40 uM were added at a final concentration of DMSO of 0.5%. At day 4, WST-1 reagent was added and absorption was measured after 45 min (450 nm/690 nm).
The medium was aspirated, 100 ul fixation solution was added per well and discarded after 30 min, followed by addition of 100 ul blocking solution. […] Absorption was measured at 405 nm.
% proliferation of cells is substracted from % E-cadherin expression resulting in Delta. The dose response curve resulting from 10 concentrations was calculated using XLfit. […]

T1 sequence (Q13547 whole entry): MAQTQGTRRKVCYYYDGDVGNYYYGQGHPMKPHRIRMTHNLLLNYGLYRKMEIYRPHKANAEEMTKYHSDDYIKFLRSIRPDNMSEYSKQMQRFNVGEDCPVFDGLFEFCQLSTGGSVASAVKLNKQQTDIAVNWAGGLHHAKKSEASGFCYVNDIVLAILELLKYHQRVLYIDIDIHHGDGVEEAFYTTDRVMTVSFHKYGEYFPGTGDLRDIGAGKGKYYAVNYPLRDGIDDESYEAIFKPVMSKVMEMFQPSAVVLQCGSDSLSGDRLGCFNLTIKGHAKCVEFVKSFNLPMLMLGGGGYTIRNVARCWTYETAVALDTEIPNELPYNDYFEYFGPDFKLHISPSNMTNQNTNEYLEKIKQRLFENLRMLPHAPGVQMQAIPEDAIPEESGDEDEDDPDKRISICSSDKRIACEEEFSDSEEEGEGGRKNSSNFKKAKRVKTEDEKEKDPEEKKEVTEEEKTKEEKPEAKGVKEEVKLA

In the case of `Nc1ccccc1NC(=O)c1cscn1` [Compound 38, Thiazole-4-carboxylic acid (2-amino-phenyl)-amide], in assay [1], half-maximal inhibition (IC50) was put at 11.1 µM. Further, the “Tumor volume (mm^3)” value in assay [2] (end of the study, female Balb/C nu/nu mice with s.c. SW620 tumors) is 1029.0 mm^3. Besides, in assay [2] (tumor volume at the end of the study, SW620 xenograft), the “% inhibition vs. control” value was 53%. Besides, the concentration for a half-maximal effect (EC50) – broadly, the concentration giving half of the maximal effect – in assay [3] stood at 5.9 µM.
